The values that follow come from patent publication US8901157B2, “Compositions and methods of use of ritonavir for treating HCV” (AbbVie Inc., priority 2006, dated 2014).

By inhibition is commonly meant the drop in the measured response relative to a control, in per cent. What is called AUC is concentration integrated over time. In general, Tmax refers to the time from dosing to the highest level. In general, half-life refers to the time needed for the level to fall by half in the phase considered.

Read-outs that look alike come from different tables or passages of the source. Bounds are passed on as bounds.

Data set [1] is described as follows: in vitro. Format: in vitro ADME. As to conditions: human, pH 7.4, human liver microsomes, read-out: Percent Inhibition of Metabolism by Ritonavir. How it is done:
(§1) Liquid handling was carried out on a Tecan EVO robotic system. Triplicate incubations were carried out at a final test compound concentration of 1 μM with 0.5 mg/ml microsomal protein, and 1 mM NADPH. Pooled human liver microsomes (1 mg/ml protein) and NADPH cofactor (2 mM) were prepared in 50 mM phosphate buffer at pH 7.4. Stock solutions (10 mM) of VX-950 or SCH 503034 were prepared in DMSO and then diluted to 100 μM in 1:1 acetonitrile/water. The solutions of compounds were added into the NADPH cofactor solution containing 0, 0.8 or 8 μM of ritonavir in a 2 ml 96-well plate. The resulting solution was added to the microsomes (1:1) that had been pre-incubated for 10 minutes at 37° C. Samples (0.1 ml) were incubated in 96-well plates at 37° C. for 0, 10, 20 and 30 min in a Tecan 4-slot incubator. At each time point, the robotic arm removed one of the replicate plates and the reactions were stopped by adding 1 volume (100 μl) of acetonitrile with internal standard (0.05 μM buspirone) to each well. All plates were centrifuged at 3500 rpm for 30 min, and the supernatant was transferred to a 96-well injection plate. The plates were stored at 4° C. until analyzed.
(§2) LC-MS/MS analysis: The samples were analyzed in positive mode using the turbospray ion source of PE/Sciex API 4000 Q-Trap mass spectrometer with Shimadzu HPLC system. Samples were injected (5 μL) onto a Lancer C18 column (5 μm, 30×2.1 mm) from Analytical Sales and Services Inc. (Pompton Plains, N.J.) and separation occurred via a gradient: The flow rate was 0.5 mL/min; starting conditions of 7.5% B, 2.5% C, increasing to 30% B and 10% C at 0.4 min. […] Mobile phase A was 95/5 water/methanol (v/v) with 10 mM ammonium acetate and 60 μL/L acetic acid. Mobile phase B was methanol containing 10 mM ammonium acetate and 60 μL/L acetic acid. Mobile phase C was acetonitrile.
Using the above conditions, the presence of ritonavir inhibited the metabolism of VX-950 and SCH 503034 in the following manner:
Metabolism of VX-950 and SCH 503034 in Human Liver Microsomes in the Absence or Presence of Ritonavir
In general terms: Liver microsomes are vesicles of endoplasmic reticulum, rich in cytochrome P450 enzymes.

A short description of data set [2]: in vitro. Format: in vitro ADME. As to conditions: rat, pH 7.4, rat liver microsomes, read-out: Percent Inhibition of Metabolism by Ritonavir. How it is done: as §1, §2
Using the procedure of Example 1, but substituting rat liver microsomes for human liver microsomes, the presence of ritonavir inhibited the metabolism of VX-950 and SCH 503034 in the following manner: […]

For data set [3] the following is noted: Sprague-Dawley, rat, in vivo, 5 mg/kg.
Protocol: (§3) The 1 mL/kg intravenous dose was administered as a slow bolus (˜1 minutes) in a jugular vein of the rats under isoflurane anesthetic; the 1 ml/kg oral dose (±ritonavir) was administered by gavage. Serial blood samples were obtained from a tail vein of each animal 0.1 (IV only), 0.25, 0.5, 1, 1.5, 2, 3, 4, 6 and 8 hours after dosing. The heparinized samples were placed on ice immediately following collection. Plasma was separated by centrifugation and stored frozen for subsequent analysis.
(§4) Concentrations of parent drug (and ritonavir) were determined by HPLC-MS/MS following liquid-liquid extraction of the plasma samples. Analysis was performed on a Sciex API 2000™ Biomolecular Mass Analyzer using Turbo Ion Spray. Peak areas of the title compounds and internal standards were determined using the Sciex MacQuan™ software. Calibration curves were derived from peak area ratio (parent drug/internal standard) of the spiked plasma standards using least squares linear regression of the ratio versus the theoretical concentration. The maximum plasma concentration (Cmax) and the time to reach the maximum plasma concentration (Tmax) were read directly from the observed plasma concentration-time data. The plasma concentration data were submitted to multi-exponential curve fitting using WinNonlin. The area under the plasma concentration-time curve from 0 to t hours (last measurable plasma concentration time point) after dosing (AUC0-t) was calculated using the linear trapezoidal rule for the plasma-time profiles. The residual area extrapolated to infinity, determined as the final measured plasma concentration (Ct) divided by the terminal elimination rate constant (β), was added to AUC0-t to produce the total area under the curve (AUC0-∞). The apparent total plasma clearance (CLp) was calculated by dividing the administered dose by the AUC0-∞. The volume of distribution, Vc, was estimated by dividing the dose by the extrapolated plasma concentration at time zero (C0). The volume of distribution at steady state, Vss, was estimated as a product of the plasma clearance (CLp) and the mean residence time (MRT); the terminal-phase volume of distribution, Vβ, was derived from the plasma clearance value (CLp) divided by the plasma elimination rate constant (β). The bioavailability was calculated as the dose-normalized AUC0-∞ from the oral dose divided by the corresponding value derived from an intravenous dose.
A short description of the next data set: in vivo. As to conditions: Sprague-Dawley, rat, 5 mg/kg.
Data set [4] in a line: Pharmacokinetics of VX-950 in rats, with or without coadministered ritonavir. The conditions noted are these: rat; for half-life: Sprague-Dawley, plasma, 5 mg/kg.
Protocol: as §3, §4
Data set [5] in a line: Pharmacokinetics of SCH 503034 in rats, with or without coadministered ritonavir. Format: in vivo, Sprague-Dawley derived rats. The conditions noted are these: rat; for half-life: mean; for Cmax: po, 5 mg/kg; for C8 h: plasma at 8 h.
[6] abbreviates: PO 5 mg/kg, no ritonavir, mean (SEM), n=3.
[7] abbreviates: Sprague-Dawley, plasma, PO 5 mg/kg, no ritonavir, mean (SEM), n=3.

Protocol for in vivo: as §3, §4

In the case of `CCC[C@H](NC(=O)[C@@H]1[C@H]2CCC[C@H]2CN1C(=O)[C@@H](NC(=O)[C@@H](NC(=O)c1cnccn1)C1CCCCC1)C(C)(C)C)C(=O)C(=O)NC1CC1` [VX-950, 2-(2-{2-cyclohexyl-2[(pyrazine-2-carbonyl)-amino]-acetylamino}-3,3-dimethyl-butyryl)-octahydro-cyclopenta[c]pyrrole-1-carboxylic acid(1-cyclopropylaminooxalyl-butyl)-amide], the inhibition at 1 μM was found to be 0% in “in vitro [1]” (ritonavir 0 micromolar), 72% in “in vitro [1]” (ritonavir 0.4 micromolar) and 100% in “in vitro [1]” (ritonavir 4.0 micromolar). In addition, the results for the inhibition at 30 min, 1 μM in “in vitro [2]” (ritonavir 0 micromolar), in the data set “in vitro [2]” (ritonavir 0.4 micromolar) and in the data set “in vitro [2]” (ritonavir 4.0 micromolar) were 0%, 61% and 100%, respectively. Besides, the Vβ in data set [3] (iv) was 8.1 (2.6) L/kg. The F in data set [3] (po) is 34.8 (11.0) %. In data set [3] (po, 8 h), this compound gave a C8 h of 0.018. Moreover, the exposure (AUC) in the data set “in vivo” (iv) is 3030 ng·h/mL; in the data set “in vivo” (po), 1050 ng·h/mL. Besides, the Vd in the data set “in vivo” (iv) stood at 2.4 L/kg. The compound also showed a clearance in the data set “in vivo” (iv) of 28.3 mL/min/kg. Also, the Tmax in “in vivo” (po, Tmax) is 1.1 h. Also, the half-life in data set [4] (iv) was 2.8 h; in data set [4] (po), 1.7 h. Also, in data set [4] (setting [6]), the Cmax is on record as 0.43 (0.15) μg/ml.
As for `CC(C)(C)NC(=O)N[C@H](C(=O)N1C[C@H]2[C@@H]([C@H]1C(=O)NC(CC1CCC1)C(=O)C(N)=O)C2(C)C)C(C)(C)C` (some centres unmarked) [SCH 503034, 3-[2-(3-tert-butyl-ureido)-3,3-diemthyl-butyryl]-6,6-dimethyl-3-aza-bicyclo[3.1.0]hexane-2-carboxylic acid (2-carbamoyl-1-cyclobutylmethyl-2-oxo-ethyl)-amide], the area under the curve (AUC) in data set [5] (Sprague-Dawley, plasma, IV 5 mg/kg, mean (SEM), n=3) amounted to 3120 ng·h/mL; in data set [5] (setting [7]), 110 ng·h/mL. For the same compound, in data set [5] (Sprague-Dawley, plasma, IV 5 mg/kg, mean (SEM), n=3, read-out: CLp (converted)), the clearance was 34 mL/min/kg. Further, in data set [5] (Sprague-Dawley, plasma, IV 5 mg/kg, mean (SEM), n=3, read-out: Vss), the Vd was determined as 0.53 L/kg. For the same compound, the half-life in data set [5] (Sprague-Dawley, plasma, IV 5 mg/kg, n=3) is 0.3 h; in data set [5] (Sprague-Dawley, plasma, PO+ = 5 mg/kg oral SCH 503034 + 5 mg/kg oral ritonavir, n=3) it was 2.5 h. Further, the AUC(0-t) in data set [5] (Sprague-Dawley, plasma, PO+ = 5 mg/kg oral SCH 503034 + 5 mg/kg oral ritonavir, mean (SEM), n=3, read-out: AUC (0-8 hr AUC)) was determined as 2180 ng·h/mL. Also, the Cmax in data set [5] (setting [7]) stood at 70 ng/mL; in data set [5] (Sprague-Dawley, plasma, PO+ = 5 mg/kg oral SCH 503034 + 5 mg/kg oral ritonavir, mean (SEM), n=3) it was 520 ng/mL. The “plasma levels on coadministering with ritonavir” value in data set [5] (5 mg/kg oral SCH 503034 + 5 mg/kg oral ritonavir vs SCH 503034 alone, FIG. 3) is given as “substantially elevated”. In addition, the Vβ in data set [5] (IV 5 mg/kg, mean (SEM), n=3) was 0.92 (0.29) L/kg. Moreover, the F in data set [5] (setting [6]) is on record as 3.5 (1.5) %; in data set [5] (PO+ = 5 mg/kg oral SCH 503034 + 5 mg/kg oral ritonavir, mean (SEM), n=3), 70.1 (7.0) %. Besides, the C8 h is listed as under 0.001 in data set [5] (PO 5 mg/kg, no ritonavir) and 0.076 in data set [5] (PO+ = 5 mg/kg oral SCH 503034 + 5 mg/kg oral ritonavir).
